Data set [1] is described as follows: Ketorolac enantiomers in mouse blood/serum by HPLC after two-week treatment. The data set is classed as in vivo, mice. An excerpt:
For two-week tumor studies, 1 × 10^6 non-treated SKOV3ip-GFP cells were i.p. injected. All mice started R-ketorolac treatment one day prior to cell injection and continued treatment until conclusion of the study 14 days later. Mice were imaged using a Light Tools imaging system (Synopsys Optical Solutions, Westminster CO) with long pass GFP filters. Three images per mouse were captured to ensure all tumors were counted. Green fluorescent tumors were identified and counted in the peritoneal cavity as single tumors if there was a distinct border of non-fluorescent tissue. […] Blood was collected via cardiac puncture and ketorolac enantiomer concentrations were measured by HPLC analysis as described in Supplemental Methods (Additional File 1: Supplemental Methods). […]
SKOV3ip cells were modified to express GFP-Rac1 by transfection with pcDNA3-EGFP-Rac1-wt (Catalog # 12980, Addgene) as described for SKOV3ip-GFP cells under Methods. Rac1 overexpression quantification and verification was completed by western blot and qPCR. […]
Omental tissue was harvested and stored on ice in PBS for no more than 1 hour before analysis. Omenta were blotted dry on lab tissue and weight was measured using an analytical balance (Denver Instruments Company, A -160). […]
Samples were then centrifuged at 4000x g for 10 minutes at 4°C. […] Ketorolac was detected using a UV spectrometer set at UV310. […]

Another data set deals with ovarian tumor cell. On the set-up: method as in PMID 26071482, PMID 26558612, PMID 26206334. The note with it: cited from earlier work.
The next data set deals with SKOV3ip-GFP cells. Kind of data set: Short-term omental engraftment assay. The data set is classed as in vivo, mice. To be noted: 18 h post i.p. injection; 1 mg/kg oral every 12 h; cells pretreated with 10 μM; vs placebo. As to the method:
Mice were conditioned to placebo pills for two days prior to drug treatment. […] Consumption was confirmed by visual observation. […] Omenta were harvested from animals 18 h post-injection and placed in ice cold 1X phosphate-buffered saline (PBS) until imaged with an Olympus IX70 inverted fluorescent microscope and Olympus CellSens software. SKOV3ip-GFP cells were subsequently digested from the omentum using 10% NP-40 substitute (Sigma, cat# 74385) in 1X PBS for 30 min at 37 °C. Omenta were gently homogenized using disposable micropestles, centrifuged, and fluorescence intensity was measured using a […] Spectramax M2 plate spectrophotometer (ex:480 nm, em:520 nm).

Another data set relates to COX-2. The arrangement: method as in PMID 26558612, PMID 10027870. The note with it: cited from earlier work.
A further data set concerns COX-1. The arrangement: method as in PMID 26558612, PMID 10027870. The note with it: cited from earlier work.
On the set-up of data set [2]: method as in PMID 8809637. To be noted: single dose oral administration of R-ketorolac; cited from earlier work.
The conditions of data set [3]: humans, multiple dosing regimens over 5 days; cited from earlier work.

Structures can show the parent of a compound that is named as a salt.

Regarding `O=C(c1ccccc1)c1ccc2n1CC[C@H]2C(=O)O` [R-ketorolac], the “Accumulation with repeated dosing” value in data set [1] (mice, daily dosing 14 days) is on record as “does not appear to accumulate with repeated dosing”. The concentration at 14 day in data set [1] (mouse, serum, at conclusion of chronic administration (14 day) tumor study, 1 mg/kg twice daily oral, read-out: Steady state blood concentration of R-ketorolac) is roughly 1400 ng/mL. For the same compound, the “Ovarian tumor cell adhesion, migration and invadopodia formation” value with ovarian tumor cell was “inhibited ovarian tumor cell adhesion, migration and invadopodia formation”. The Cytotoxicity result in the data set with ovarian tumor cell (ovarian tumor cells) is reported as “without cytotoxicity”. In the data set on SKOV3ip-GFP cells, the “Omental engraftment (GFP fluorescence, omental localization of SKOV3ip-GFP cells)” value is recorded as “decreased the omental localization of SKOV3ip-GFP cells”. Also, the IC50 in the data set with COX-2 and in the data set on COX-1 was greater than 100 µM throughout. The “Maximal peak serum concentration” value in data set [2] is 2.48 µg/mL.
As for `O=C(c1ccccc1)c1ccc2n1CCC2C(=O)O` (stereo not drawn) [R−/S-ketorolac, ketorolac tromethamine salt], in data set [3], the “Accumulation of enantiomers with multiple dosing” value is given as “did not result in accumulation of either enantiomer”.
